Data on ten compounds can be found in patent publication US11814376B2, “Hepatitis b core protein modulators” (Assembly Biosciences, Inc., priority 2015, dated 2023).

Like-named read-outs stand apart in the source and are kept apart here.

One data set deals with AD38 cells. Put plainly: Viability of AD38 cells (Promega CellTiter-Glo). Format: cell-based. To be noted: 10 μM compound, 6 days, CellTiter-Glo luminescence normalized to DMSO control (100%). A digest of the protocol: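 After 6 days of compound exposure at 37° C (compound added as 10× solution in 10% DMSO; 50,000 cells/well, collagen-coated), medium was replaced with tetracycline-free DMEM/F12, 2% FBS, 1% DMSO. CellTiter-Glo luminescence was then recorded and normalized to DMSO-treated wells as 100% viability.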
For orientation: Cellular ATP, detected with luciferase, serves as a proxy for viable cell number.

Data set [1] relates to HBV viral load in AD38 cells. The data set can be described thus: Viral load production in AD38 cells, quantitative PCR of the core sequence in supernatant. It counts as cell-based. To be noted: Hepatitis B virus, 144 h, read-out: AD38 Viral Load (%) (VL with cmpd/VL in DMSO control) at 10 μM.
Where [2] appears, read: 10 μM compound, 6 days at 37° C., supernatant qPCR, relative to DMSO control.

As to `O=C(NCc1cnc(-c2ccc(OCCC[N+]34CCC(CC3)CC4)cc2)s1)c1ccc2c(c1)NC(=O)c1ccccc1S2(=O)=O.[Br-]` [compound 11108, 1-(3-(4-(5-((5,5-dioxido-11-oxo-10, 11-dihydrodibenzo [b, f] [1, 4]thiazepine-8-carboxamido)methyl)thiazol-2-yl)phenoxy)propyl) quinuclidin-1-ium bromide], the “AD38 Viability Normalized Result (cmpd/DMSO %) at 10 μM” value in the data set on AD38 cells came out at 95%. In addition, the activity at 10 µM in data set [1] was 11.2%.

`CN(C)CC1(COc2ccc(-c3ncc(CNC(=O)c4ccc5c(c4)NC(=O)c4ccccc4S5(=O)=O)s3)cc2)CC1` [compound 11112]: in the data set with AD38 cells, the “AD38 Viability Normalized Result (cmpd/DMSO %) at 10 μM” value is reported as 100%. Besides, the activity at 10 µM in data set [1] (setting [2]) was 4%.

For `CN(C)CC1(COc2ccc(-c3ncc(CNC(=O)c4ccc5c(c4)NC(=O)c4ccccc4S5(=O)=O)s3)cc2)CCC1` [compound 11113], in the data set with AD38 cells, the “AD38 Viability Normalized Result (cmpd/DMSO %) at 10 μM” value was 92%. Further, the activity at 10 µM in data set [1] (setting [2]) amounted to 4.9%.

`CCOC(=O)c1cnn(-c2ncc(CNC(=O)c3ccc4c(c3)NC(=O)c3ccccc3S4(=O)=O)s2)c1` [compound 11116]: in the data set on AD38 cells, the “AD38 Viability Normalized Result (cmpd/DMSO %) at 10 μM” value stood at 97%. In addition, the activity at 10 µM in data set [1] (setting [2]) turned out to be 0.9%.

Consider `CCOC(=O)/C=C/c1cnn(-c2ncc(CNC(=O)c3ccc4c(c3)NC(=O)c3ccccc3S4(=O)=O)s2)c1` [compound 11118], for which the “AD38 Viability Normalized Result (cmpd/DMSO %) at 10 μM” value with AD38 cells came to 95%. Further, the activity at 10 µM in data set [1] (setting [2]) came out at 1.9%.

For the compound `CN1CCC[C@@H]1COc1ccc(-c2ncc(CNC(=O)c3ccc4c(c3)NC(=O)c3ccccc3S4(=O)=O)s2)cc1` [compound 11131, (R)—N-((2-(4-((1-methylpyrrolidin-2-yl)methoxy)phenyl)thiazol-5-yl)methyl)-11-oxo-10,11-dihydrodibenzo [b, f] [1, 4] thiazepine-8-carboxamide 5,5-dioxide], the “AD38 Viability Normalized Result (cmpd/DMSO %) at 10 μM” value with AD38 cells worked out at 88%. Moreover, the activity at 10 µM in data set [1] (setting [2]) amounted to 2%.

On to `CN1CC[C@H](Oc2ccc(-c3ncc(CNC(=O)c4ccc5c(c4)NC(=O)c4ccccc4S5(=O)=O)s3)cc2)C1` [compound 11134, (S)—N-((2-(4-((1-methylpyrrolidin-3-yl)oxy)phenyl)thiazol-5-yl)methyl)-11-oxo-10, 11-dihydrodibenzo [b, f] [1, 4] thiazepine-8-carboxamide 5,5-dioxide], for which the “AD38 Viability Normalized Result (cmpd/DMSO %) at 10 μM” value in the data set on AD38 cells stood at 90%. For the same compound, in data set [1] (setting [2]), the activity at 10 µM came out at 1.4%.

`CN1CCC[C@H]1COc1ccc(-c2ncc(CNC(=O)c3ccc4c(c3)NC(=O)c3ccccc3S4(=O)=O)s2)cc1` [compound 11135, (S)—N-((2-(4-((1-methylpyrrolidin-2-yl)methoxy)phenyl)thiazol-5-yl)methyl)-11-oxo-10,11-dihydrodibenzo [b, f] [1, 4] thiazepine-8-carboxamide 5,5-dioxide]: the “AD38 Viability Normalized Result (cmpd/DMSO %) at 10 μM” value with AD38 cells was determined as 91%. In data set [1] (setting [2]), the activity at 10 µM was determined as 1.8%.

`O=C(NCc1cnc(-c2ccc(OCC3CCNCC3)cc2)s1)c1ccc2c(c1)NC(=O)c1ccccc1S2(=O)=O` [compound 11137, 11-oxo-N-((2-(4-(piperidin-4-ylmethoxy)phenyl)thiazol-5-yl)methyl)-10, 11-dihydrodibenzo [b, f] [1, 4] thiazepine-8-carboxamide 5,5-dioxide]: the “AD38 Viability Normalized Result (cmpd/DMSO %) at 10 μM” value in the data set on AD38 cells is given as 96%. Also, the activity at 10 µM in data set [1] (setting [2]) came out at 3.6%.

On to `CN1CCC(COc2ccc(-c3ncc(CNC(=O)c4ccc5c(c4)NC(=O)c4ccccc4S5(=O)=O)s3)cc2)CC1.Cl` [compound 11138, N-((2-(4-((1-methylpiperidin-4-yl)methoxy)phenyl)thiazol-5-yl)methyl)-11-oxo-10, 11-dihydrodibenzo [b, f] [1, 4] thiazepine-8-carboxamide 5,5-dioxide hydrochloride], for which the “AD38 Viability Normalized Result (cmpd/DMSO %) at 10 μM” value with AD38 cells stood at 96%. The activity at 10 µM in data set [1] (setting [2]) was determined as 1%.
